Results as given in patent US20090062294A1, “HETEROARYL-SUBSTITUTED UREA MODULATORS OF FATTY ACID AMIDE HYDROLASE” (priority 2007, published 2009).
Structures can show the parent of a compound that is named as a salt.

Key:
[1] = target: T1, rat FAAH (Rattus norvegicus, UniProt P97612); assay: Assay Method 2: FAAH assay, 3H-anandamide hydrolysis in homogenate of SK-N-MC cells transfected with rat FAAH; format: biochemical; conditions: average of results, > = solubility limit or highest concentration tested
T1 sequence (P97612 1-579): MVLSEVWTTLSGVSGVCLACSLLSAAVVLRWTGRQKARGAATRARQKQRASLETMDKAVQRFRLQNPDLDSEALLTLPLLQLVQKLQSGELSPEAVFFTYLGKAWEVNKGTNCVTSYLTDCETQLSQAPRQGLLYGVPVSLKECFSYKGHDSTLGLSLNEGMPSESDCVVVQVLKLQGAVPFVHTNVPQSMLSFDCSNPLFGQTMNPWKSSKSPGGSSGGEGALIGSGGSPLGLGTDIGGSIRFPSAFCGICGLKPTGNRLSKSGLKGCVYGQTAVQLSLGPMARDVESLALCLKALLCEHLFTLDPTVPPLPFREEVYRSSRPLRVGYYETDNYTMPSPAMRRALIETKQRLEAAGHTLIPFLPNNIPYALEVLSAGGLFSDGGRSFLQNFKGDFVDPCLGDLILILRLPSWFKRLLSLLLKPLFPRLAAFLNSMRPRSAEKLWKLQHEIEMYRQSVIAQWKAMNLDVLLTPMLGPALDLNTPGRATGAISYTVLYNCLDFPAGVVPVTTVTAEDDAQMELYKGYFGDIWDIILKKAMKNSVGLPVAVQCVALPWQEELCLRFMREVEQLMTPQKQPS
Experimental: A. Transfection of Cells with Rat FAAH
(§1) A 10-cm tissue culture dish with a confluent monolayer of SK—N-MC cells was split 2 days (d) prior to transfection. Using sterile technique, the media was removed and the cells were detached from the dish by the addition of trypsin. One fifth of the cells were then placed onto a new 10-cm dish. Cells were grown in a 37° C. incubator with 5% CO2 in Minimal Essential Media Eagle with 10% Fetal Bovine Serum. After 2 d, cells were approximately 80% confluent. These cells were removed from the dish with trypsin and pelleted in a clinical centrifuge. The pellet was re-suspended in 400 μL complete media and transferred to an electroporation cuvette with a 0.4 cm gap between the electrodes. Supercoiled rat FAAH cDNA (1 μg) was added to the cells and mixed. The voltage for the electroporation was set at 0.25 kV, and the capacitance was set at 960 μF. After electroporation, the cells were diluted into complete media (10 mL) and plated onto four 10-cm dishes. Because of the variability in the efficiency of electroporation, four different concentrations of cells were plated. The ratios used were 1:20, 1:10, and 1:5, with the remainder of the cells being added to the fourth dish. The cells were allowed to recover for 24 h before adding the selection media (complete media with 600 μg/mL G418). After 10 d, dishes were analyzed for surviving colonies of cells. Dishes with well-isolated colonies were used. Cells from individual colonies were isolated and tested.
(§2) T84 frozen cell pellets or transfected SK—N-MC cells (contents of 1×15 cm culture dishes) were homogenized in 50 mL of FAAH assay buffer (125 mM Tris, 1 mM EDTA, 0.2% Glycerol, 0.02% Triton X-100, 0.4 mM Hepes, pH 9). The assay mixture consisted of 50 μL of the cell homogenate, 10 μL of the test compound, and 40 μL of anandamide [1-^3H-ethanolamine] (^3H-AEA, Perkin-Elmer, 10.3 Ci/mmol), which was added last, for a final tracer concentration of 80 nM. The reaction mixture was incubated at rt for 1 h. During the incubation, 96-well Multiscreen filter plates (catalog number MAFCNOB50; Millipore, Bedford, Mass., USA) were loaded with 25 μL of activated charcoal (Multiscreen column loader, catalog number MACL09625, Millipore) and washed once with 100 μL of MeOH. Also during the incubation, 96-well DYNEX MicroLite plates (catalog number NL510410) were loaded with 100 μL of MicroScint40 (catalog number 6013641, Packard Bioscience, Meriden, Conn., USA). After the 1 h incubation, 60 μL of the reaction mixture were transferred to the charcoal plates, which were then assembled on top of the DYNEX plates using Centrifuge Alignment Frames (catalog number MACF09604, Millipore). The unbound labeled ethanolamine was centrifuged through to the bottom plate (5 min at 2000 rpm), which was preloaded with the scintillant, as described above. The plates were sealed and left at rt for 1 h before counting on a Hewlett Packard TopCount.
(§3) Compounds were tested in free base, hydrochloride salt, and/or trifluoroacetic acid salt forms.

[2] = target: T2, FAAH (Homo sapiens, UniProt O00519); assay: Assay Method 1: FAAH assay, 3H-anandamide hydrolysis in homogenate of T84 cells or SK-N-MC cells transfected with human FAAH; format: biochemical; conditions: average of results, > = solubility limit or highest concentration tested
T2 sequence (O00519 1-579): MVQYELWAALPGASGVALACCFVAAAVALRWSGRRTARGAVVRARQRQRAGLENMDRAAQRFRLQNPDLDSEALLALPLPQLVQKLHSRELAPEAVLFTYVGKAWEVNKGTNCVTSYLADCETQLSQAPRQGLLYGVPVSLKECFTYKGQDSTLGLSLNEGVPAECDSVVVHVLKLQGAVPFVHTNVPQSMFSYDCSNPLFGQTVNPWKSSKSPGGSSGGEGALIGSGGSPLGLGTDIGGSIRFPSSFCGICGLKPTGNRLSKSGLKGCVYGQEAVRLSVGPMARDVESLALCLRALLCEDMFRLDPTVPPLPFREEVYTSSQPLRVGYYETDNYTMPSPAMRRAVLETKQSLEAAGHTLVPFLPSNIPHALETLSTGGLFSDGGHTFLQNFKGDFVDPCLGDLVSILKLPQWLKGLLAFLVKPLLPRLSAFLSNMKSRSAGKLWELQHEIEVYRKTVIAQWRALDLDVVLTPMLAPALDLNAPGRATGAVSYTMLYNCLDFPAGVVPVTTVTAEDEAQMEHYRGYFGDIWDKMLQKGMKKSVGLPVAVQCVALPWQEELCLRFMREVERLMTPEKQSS
Experimental: A. Transfection of Cells with Human FAAH
as §1, with “Supercoiled human” for “Supercoiled rat”
as §2, §3

An IC50 [1] of 9000 nM and an IC50 [2] of 1300 nM were found for `O=C(Nc1cccnn1)N1CCN(Cc2cnc3ccccc3c2)CC1` [Example 197, N-Pyridazin-3-yl-4-(quinolin-3-ylmethyl)piperazine-1-carboxamide] in this work.
An IC50 [1] of 9000 nM and an IC50 [2] of over 10000 nM were found for `O=C(Nc1ccc2ccccc2n1)N1CCC(Cc2ccc3ccccc3c2)CC1` [Example 18, 4-Naphthalen-2-ylmethyl-piperidine-1-carboxylic acid quinolin-2-ylamide trifluoroacetic acid salt] in this work.
An IC50 [1] of 35 nM and an IC50 [2] of 200 nM were found for `O=C(Nc1nnn[nH]1)N1CCN(Cc2cccc(Oc3ccc(C(F)(F)F)cc3)c2)CC1` [Example 171, N-1H-Tetrazol-5-yl-4-{3-[4-(trifluoromethyl)phenoxy]benzyl}piperazine-1-carboxamide] in this work.
An IC50 [1] of 200 nM and an IC50 [2] of 55 nM were found for `O=C(Nc1noc2ccccc12)N1CCN(Cc2ccc3ccccc3n2)CC1` [Example 124, 4-Quinolin-2-ylmethyl-piperazine-1-carboxylic acid benzo[d]isoxazol-3-ylamide] in this work.
An IC50 [1] of 141 nM and an IC50 [2] of 48 nM were found for `O=C(Nc1cccc2nsnc12)N1CCN(Cc2cccc(OC(F)(F)F)c2)CC1` [Example 41, 4-(3-Trifluoromethoxy-benzyl)-piperazine-1-carboxylic acid benzo[1,2,5]thiadiazol-4-ylamide trifluoroacetic acid salt] in this work.
An IC50 [1] of over 10000 nM and an IC50 [2] of 4000 nM were found for `O=C(Nc1cnccn1)N1CCN(Cc2cnc3ccccc3c2)CC1` [Example 224, N-Pyrazin-2-yl-4-(quinolin-3-ylmethyl)piperazine-1-carboxamide] in this work.
An IC50 [1] of 250 nM and an IC50 [2] of 150 nM were found for `O=C(Nc1cnccn1)N1CCN(Cc2ccc(Br)c(Br)c2)CC1` [Example 217, 4-(3,4-Dibromobenzyl)-N-pyrazin-2-ylpiperazine-1-carboxamide] in this work.
An IC50 [1] of 7 nM and an IC50 [2] of 43 nM were found for `O=C(Nc1noc2ccccc12)N1CCC(Cc2ccc3ccccc3c2)CC1` [Example 21, 4-Naphthalen-2-ylmethyl-piperidine-1-carboxylic acid benzo[d]isoxazol-3-ylamide] in this work.
An IC50 [1] of 190 nM and an IC50 [2] of 152 nM were found for `O=C(Nc1noc2ccccc12)N1CCN(Cc2cccc(Oc3cc(F)cc(F)c3)c2)CC1` [Example 34, 4-[3-(3,5-Difluoro-phenoxy)-benzyl]-piperazine-1-carboxylic acid benzo[d]isoxazol-3-ylamide trifluoroacetic acid salt] in this work.
An IC50 [1] of 46 nM and an IC50 [2] of 46 nM were found for `O=C(Nc1noc2ccccc12)N1CCN(Cc2cccc(C#CC3CCCCC3)c2)CC1` [Example 70, N-1,2-Benzisoxazol-3-yl-4-[3-(cyclohexylethynyl)benzyl]-piperazine-1-carboxamide] in this work.
An IC50 [1] of 2 nM and an IC50 [2] of 9 nM were found for `CCCCc1ccc(Oc2cccc(CN3CCN(C(=O)Nc4noc5ccccc45)CC3)c2)cc1` [Example 209, 4-[3-(4-Butyl-phenoxy)-benzyl]-piperazine-1-carboxylic acid benzo[d]isoxazol-3-ylamide] in this work.
An IC50 [1] of 7000 nM and an IC50 [2] of 2300 nM were found for `O=C(Nc1cnccn1)N1CCN(Cc2cccc(OC(F)(F)F)c2)CC1` [Example 61, 4-(3-Trifluoromethoxy-benzyl)-piperazine-1-carboxylic acid pyrazin-2-ylamide trifluoroacetic acid salt] in this work.
An IC50 [1] of 6000 nM and an IC50 [2] of 700 nM were found for `O=C(Nc1ccon1)N1CCN(Cc2cccc(Oc3ccccc3Cl)c2)CC1` [Example 140, 4-[3-(2-Chlorophenoxy)benzyl]-N-isoxazol-3-ylpiperazine-1-carboxamide] in this work.
An IC50 [1] of 22 nM and an IC50 [2] of 270 nM were found for `O=C(Nc1cnccn1)N1CCN(Cc2cccc(Oc3ccc(Cl)c(Cl)c3)c2)CC1` [Example 59, 4-[3-(3,4-Dichloro-phenoxy)-benzyl]-piperazine-1-carboxylic acid pyrazin-2-ylamide trifluoroacetic acid salt] in this work.
An IC50 [1] of 2400 nM and an IC50 [2] of 2000 nM were found for `O=C(Nc1cccs1)N1CCN(Cc2ccc3c(c2)OC(F)(F)O3)CC1` [Example 7, 4-(2,2-Difluoro-benzo[1,3]dioxol-5-ylmethyl)-piperazine-1-carboxylic acid thiophen-2-ylamide] in this work.
An IC50 [1] of 4000 nM and an IC50 [2] of 5000 nM were found for `Cc1cnc(NC(=O)N2CCN(Cc3cccc(C#Cc4ccccc4Cl)c3)CC2)cn1` [Example 80, 4-{3-[(2-Chlorophenyl)ethynyl]benzyl}-N-(5-methylpyrazin-2-yl)piperazine-1-carboxamide] in this work.
An IC50 [1] of 30 nM and an IC50 [2] of 5 nM were found for `O=C(Nc1cnccn1)N1CCN(Cc2cccc(Oc3ccc4c(c3)OC(F)(F)O4)c2)CC1` [Example 237, 4-{3-[(2,2-Difluoro-1,3-benzodioxol-5-yl)oxy]benzyl}-N-pyrazin-2-ylpiperazine-1-carboxamide] in this work.
An IC50 [1] of 46 nM and an IC50 [2] of 24 nM were found for `O=C(Nc1noc2ccccc12)N1CCN(Cc2cccc(C#Cc3ccccc3F)c2)CC1` [Example 66, N-1,2-Benzisoxazol-3-yl-4-{3-[(2-fluorophenyl)ethynyl]-benzyl}-piperazine-1-carboxamide] in this work.
An IC50 [1] of 325 nM and an IC50 [2] of 410 nM were found for `O=C(Nc1noc2ccccc12)N1CCN(Cc2cccc(C#Cc3ccc(Cl)cc3)c2)CC1` [Example 74, N-1,2-Benzisoxazol-3-yl-4-{3-[(4-chlorophenyl)ethynyl]benzyl}-piperazine-1-carboxamide] in this work.
An IC50 [1] of 815 nM and an IC50 [2] of 195 nM were found for `O=C(Nc1noc2ccccc12)N1CCN(Cc2cccc(C#Cc3cccc(Cl)c3Cl)c2)CC1` [Example 90, N-1,2-Benzisoxazol-3-yl-4-{3-[(2,3-dichlorophenyl)ethynyl]benzyl}-piperazine-1-carboxamide] in this work.
